Read-outs that look alike come from different tables or passages of the source.
Assays:
in vitro = settings: Sprague-Dawley, rat, brain homogenate
[1] = Regional brain tissue binding by equilibrium dialysis, human post-mortem brain homogenate (control and AD donors); format: in vitro ADME; settings: for fu,brain,ROI in CRB of AD patients compared to rat CRB: AD patients versus healthy Sprague-Dawley rats; for fraction unbound at 6 h, 1 µM: human, post-mortem brain tissue homogenate
[2] = rat, brain homogenate
[3] = on average; according to prior information; cited from earlier work
[4] = set-up: method as in Loryan et al.[23]; settings: Rat, ref Loryan et al.[23], cited from earlier work; for fu,brain,ROI Mean: biological replicates; for fu,brain,ROI Median: technical replicates
[5] = AD donors, BG, pH 7.4, AD donors, BG, biological replicates, 1 µM, 6 h, 37 °C, read-out: fu,brain,ROI Mean
[6] = AD donors, BG, pH 7.4, AD donors, BG, technical replicates, 1 µM, 6 h, 37 °C, read-out: fu,brain,ROI Median
[7] = AD donors, CRB, pH 7.4, AD donors, CRB, biological replicates, 1 µM, 6 h, 37 °C, read-out: fu,brain,ROI Mean
[8] = AD donors, CRB, pH 7.4, AD donors, CRB, technical replicates, 1 µM, 6 h, 37 °C, read-out: fu,brain,ROI Median
[9] = AD donors, FrCx, pH 7.4, AD donors, FrCx, biological replicates, 1 µM, 6 h, 37 °C, read-out: fu,brain,ROI Mean
[10] = AD donors, FrCx, pH 7.4, AD donors, FrCx, technical replicates, 1 µM, 6 h, 37 °C, read-out: fu,brain,ROI Median
[11] = AD donors, PrCx, pH 7.4, AD donors, PrCx, technical replicates, 1 µM, 6 h, 37 °C, read-out: fu,brain,ROI Median
[12] = control donors, BG, pH 7.4, Control donors, BG, biological replicates, 1 µM, 6 h, 37 °C, read-out: fu,brain,ROI Mean
[13] = control donors, BG, pH 7.4, Control donors, BG, technical replicates, 1 µM, 6 h, 37 °C, read-out: fu,brain,ROI Median
[14] = control donors, CRB, pH 7.4, Control donors, CRB, biological replicates, 1 µM, 6 h, 37 °C, read-out: fu,brain,ROI Mean
[15] = control donors, CRB, pH 7.4, Control donors, CRB, technical replicates, 1 µM, 6 h, 37 °C, read-out: fu,brain,ROI Median
[16] = control donors, FrCx, pH 7.4, Control donors, FrCx, biological replicates, 1 µM, 6 h, 37 °C, read-out: fu,brain,ROI Mean
[17] = control donors, FrCx, pH 7.4, Control donors, FrCx, technical replicates, 1 µM, 6 h, 37 °C, read-out: fu,brain,ROI Median
[18] = control donors, PrCx, pH 7.4, Control donors, PrCx, biological replicates, 1 µM, 6 h, 37 °C, read-out: fu,brain,ROI Mean
[19] = control donors, PrCx, pH 7.4, Control donors, PrCx, technical replicates, 1 µM, 6 h, 37 °C, read-out: fu,brain,ROI Median
[20] = AD group, within-group comparison
[21] = AD donors, PrCx, pH 7.4, AD donors, PrCx, biological replicates, 1 µM, 6 h, 37 °C, read-out: fu,brain,ROI Mean

| fraction unbound at 6 h, 1 µM (in vitro; pH 7.4, fu,brain,ROI Mean) | fraction unbound at 6 h, 1 µM (in vitro; pH 7.4, fu,brain,ROI Median) | fu,brain,ROI in CRB of AD patients compared to rat CRB [1] | fraction unbound at 6 h, 1 µM [1, 5] | fraction unbound at 6 h, 1 µM [1, 6] | fraction unbound at 6 h, 1 µM [1, 7] | fraction unbound at 6 h, 1 µM [1, 8] | fraction unbound at 6 h, 1 µM [1, 9] | fraction unbound at 6 h, 1 µM [1, 10] | fraction unbound at 6 h, 1 µM [1, 11] | fraction unbound at 6 h, 1 µM [1, 12] | fraction unbound at 6 h, 1 µM [1, 13] | fraction unbound at 6 h, 1 µM [1, 14] | fraction unbound at 6 h, 1 µM [1, 15] | fraction unbound at 6 h, 1 µM [1, 16] | fraction unbound at 6 h, 1 µM [1, 17] | fraction unbound at 6 h, 1 µM [1, 18] | fraction unbound at 6 h, 1 µM [1, 19] | between region comparison of fu,brain,ROI [2] | ratio of fu,brain,ROI in CRB compared to PrCx [1, 20] | Compound | also measured |
| --- | --- | --- | --- | --- | --- | --- | --- | --- | --- | --- | --- | --- | --- | --- | --- | --- | --- | --- | --- | --- | --- |
| 0.068 | 0.065 | twice as high | 0.089 | 0.089 | 0.149 | 0.116 | 0.103 | 0.095 | 0.08 | 0.073 | 0.071 | 0.113 | 0.109 | 0.088 | 0.088 | 0.079 | 0.083 | no differences in binding |  | COc1ccc2c(c1)c(CC(=O)O)c(C)n2C(=O)c1ccc(Cl)cc1 [Indomethacin, indomethacin] | plasma protein binding exceeding brain tissue binding [3]: 5 fold |
| 0.076 | 0.073 | twice as high | 0.114 | 0.111 | 0.152 | 0.142 | 0.114 | 0.117 | 0.103 | 0.092 | 0.093 | 0.113 | 0.116 | 0.094 | 0.092 | 0.088 | 0.086 | no differences in binding | ≥ 1.5 | CC12CC3CC(C)(C1)CC(N)(C3)C2 [Memantine, memantine] | fold higher fu,brain,ROI in CRB compared to PrCx ([1]; control group, within-group comparison): ≥ 1.3 fold; fraction unbound at 6 h, 1 µM [1, 21]: 0.099 |
|  |  | twice as high | 0.249 | 0.249 | 0.374 |  | 0.237 | 0.216 | 0.224 | 0.186 | 0.192 | 0.217 | 0.207 | 0.197 | 0.198 | 0.189 | 0.183 | no differences in binding | ≥ 1.5 | Cc1nc2n(c(=O)c1CCN1CCC(c3noc4cc(F)ccc34)CC1)CCCC2O (stereo not drawn) [Paliperidone, paliperidone] | fu,brain,ROI Median ([1]; AD donors, CRB, technical replicates, 1 µM, 6 h, 37 °C): 0.350; ratio of fu,brain,ROI in CRB compared to BG [1, 20]: 1.4; fold lower BTB in CRB compared to frontal and parietal cortices ([1]; AD patients, average): 1.5 fold; ratio of fu,brain,ROI AD versus control ([1]; CRB, between group comparison): 1.6; regional within-group comparison of fu,brain,ROI ([1]; control group, FrCx, PrCx, BG, CRB): uniform binding; fraction unbound at 6 h, 1 µM [1, 21]: 0.232; fu,brain,ROI Mean ([4]; BG): 0.128; fu,brain,ROI Median ([4]; BG): 0.128; fu,brain,ROI Mean ([4]; CRB): 0.145; fu,brain,ROI Median ([4]; CRB): 0.143; fu,brain,ROI Mean ([4]; FrCx): 0.144; fu,brain,ROI Median ([4]; FrCx): 0.138; fu,brain,ROI Mean ([4]; HIP): 0.157; fu,brain,ROI Median ([4]; HIP): 0.150; fu,brain,ROI Mean ([4]; WB): 0.141; fu,brain,ROI Median ([4]; WB): 0.151 |

From PMC6440985, “Heterogeneous drug tissue binding in brain regions of rats, Alzheimer’s patients and controls: impact on translational drug development” (Scientific Reports, 2019)
